In PMC7181131, “N-Pyrazinoyl Substituted Amino Acids as Potential Antimycobacterial Agents—the Synthesis and Biological Evaluation of Enantiomers” (Molecules, 2020):
Converted amounts (≈) assume the structure as drawn. Like-named read-outs stand apart in the source and are kept apart here.

Assays:
[1] = system: Trichophyton interdigitale CCM 8377 (ATCC 9533); experiment: Antifungal microdilution broth method, TI; type: cell-based; details: 48 h, read-out: MIC TI
[2] = system: Candida krusei CCM 8271 (ATCC 6258); experiment: Antifungal microdilution broth method, CK; type: cell-based; details: Pichia kudriavzevii, 24 h, read-out: MIC CK
[3] = system: HepG2 cell line; experiment: HepG2 cytotoxicity, CellTiter 96 (MTS) assay; type: cell-based, human; details: Homo sapiens, HepG2, 24 h, read-out: HepG2 IC50
[4] = system: Candida parapsilosis CCM 8260 (ATCC 22019); experiment: Antifungal microdilution broth method, CP; type: cell-based; details: Lodderomyces parapsilosis, 24 h, read-out: MIC CP
[5] = system: Aspergillus flavus CCM 8363; experiment: Antifungal microdilution broth method, AFla; type: cell-based; details: CCM8363, read after 48 h (filamentous fungi), read-out: MIC AFla
Protocol: 6. In vitro antifungal activity screening
Antifungal activity evaluation was performed using a microdilution broth method according to EUCAST instructions (The European Committee on Antimicrobial Susceptibility Testing) with slight modifications. Eight fungal strains (four yeast and four mould strains) were used for antifungal […]
and Trichophyton interdigitale CCM 8377 (ATCC 9533). Tested strains were purchased from the Czech Collection of Microorganisms (CCM, Brno, Czech Republic) or from the American Type Collection Cultures (ATCC, Manassas, VA, USA). Tested compounds were dissolved in DMSO and diluted in a twofold manner with RPMI 1640 medium, with glutamine and 2% glucose, buffered to pH 7.0 with MOPS (3-morpholinopropane-1-sulfonic acid). The final concentration of DMSO in the testing […]
Static incubation was performed in the dark and in humid atmosphere, at 35±2 °C, for 24 and 48 h (72 and 120 h for Trichophyton interdigitale respectively). Positive controls consisted of test microbe solely, while negative controls consisted of cultivation medium and DMSO. Visual inspection and metabolic activity indicator, Alamar Blue (ThermoFisher Scientific), were used for MIC endpoint evaluation. The internal quality standards, amphotericin B (Sigma-Aldrich) and voriconazole (Toronto research Chemicals, CA) were involved in assays (for MIC of standards see Table S5). All experiments were conducted in duplicates.
For the results to be valid, the difference in MIC for one compound determined from two parallel measurements must not be greater than one step on the dilution scale.

[6] = system: Staphylococcus epidermidis CCM 4418 (ATCC 12228); experiment: Antibacterial microdilution broth method, SE; type: cell-based; details: 24 h, read-out: MIC SE
[7] = system: M. smegmatis DSM 43465 (ATCC 607); experiment: Microplate Alamar Blue Assay (MABA) microdilution, M. smegmatis; type: cell-based, Mycobacterium smegmatis; details: Mycolicibacterium smegmatis
[8] = system: Aspergillus fumigatus ATCC 204305; experiment: Antifungal microdilution broth method, AF; type: cell-based; details: ATCC204305, 48 h, read-out: MIC AF
[9] = system: Lichtheimia corymbifera CCM 8077; experiment: Antifungal microdilution broth method, LC; type: cell-based; details: CCM8077, 48 h, read-out: MIC LC
[10] = system: Mycobacterium aurum DSM 43999 (ATCC 23366); experiment: Microplate Alamar Blue Assay (MABA) microdilution, M. aurum; type: cell-based; details: Mycolicibacterium aurum
[11] = system: Klebsiella pneumoniae CCM 4415 (ATCC 10031); experiment: Antibacterial microdilution broth method, KP; details: read after 24 h of incubation
[12] = system: Mtb H37Ra ITM-M006710 (ATCC 9431); experiment: Microplate Alamar Blue Assay (MABA) microdilution, Mtb H37Ra; type: cell-based, Mycobacterium tuberculosis; details: Mycobacterium tuberculosis
[13] = system: Candida albicans CCM 8320 (ATCC 24433); experiment: Antifungal microdilution broth method, CA; type: cell-based; details: 24 h, read-out: MIC CA
[14] = system: Candida tropicalis CCM 8264 (ATCC 750); experiment: Antifungal microdilution broth method, CT; type: cell-based; details: 24 h, read-out: MIC CT
[15] = pH 6, read-out: MIC M. smegmatis µg/mL
[16] = pH 6.6, read-out: MIC M. smegmatis
[17] = pH 6, read-out: MIC M. aurum µg/mL
[18] = pH 6.6, read-out: MIC Mtb H37Ra
[19] = pH 6, calculated from µg/mL, read-out: MIC Mtb H37Ra

COC(=O)[C@H](CCSC)NC(=O)c1cnccn1 [PC-L-Met-Me, methyl (pyrazine-2-carbonyl)-L-methioninate]
MIC [1]: 500 µM (≈ 135 µg/mL)
MIC [2]: > 500 µM
IC50 [3]: > 100 µM
MIC [4]: > 500 µM
MIC [5]: > 500 µM
MIC [6]: > 500 µM
MIC [7, 15]: ≥ 500 µg/mL
MIC [7, 16]: ≥ 500 µg/mL
MIC [8]: > 500 µM
MIC [9]: > 500 µM
MIC [10, 17]: 62.5 µg/mL (≈ 232 µM)
MIC ([10]; pH 6.6, read-out: MIC M. aurum): ≥ 500 µg/mL
MIC KP [11]: > 500 µM
MIC ([12]; pH 6): < 3.91 µg/mL
MIC ([12]; pH 6, read-out: Mtb pH 6 MIC): 15 µM
MIC ([12]; pH 6, read-out: MIC Mtb H37Ra): < 3.91 µg/mL
MIC [12, 18]: ≥ 500 µg/mL
MIC [12, 19]: < 14.5 µM
MIC [13]: > 500 µM
MIC [14]: > 500 µM

COC(=O)[C@@H](NC(=O)c1cnccn1)[C@@H](C)OC(C)(C)C [PC-L-OtBu-Thr-Me, methyl O-(tert-butyl)-N-(pyrazine-2-carbonyl)-L-threoninate]
MIC [1]: > 500 µM
MIC [2]: > 500 µM
IC50 [3]: > 500 µM
MIC [4]: > 500 µM
MIC [5]: > 500 µM
MIC [6]: 62.5 µM (≈ 18.5 µg/mL)
MIC [7, 15]: ≥ 500 µg/mL
MIC [7, 16]: ≥ 500 µg/mL
MIC [8]: > 500 µM
MIC [9]: > 500 µM
MIC [10, 17]: ≥ 500 µg/mL
MIC ([10]; pH 6.6, read-out: MIC M. aurum): ≥ 500 µg/mL
MIC KP [11]: > 500 µM
MIC ([12]; pH 6): ≥ 500 µg/mL
MIC ([12]; pH 6, read-out: Mtb pH 6 MIC): 1690 µM
MIC ([12]; pH 6, read-out: MIC Mtb H37Ra): ≥ 500 µg/mL
MIC [12, 18]: ≥ 500 µg/mL
MIC [12, 19]: ≥ 1690 µM
MIC [13]: > 500 µM
MIC [14]: > 500 µM

COC(=O)[C@H](COCc1ccccc1)NC(=O)c1cnccn1 [PC-L-OBn-Ser-Me, methyl O-benzyl-N-(pyrazine-2-carbonyl)-L-serinate]
MIC [1]: > 250 µM
MIC [2]: > 250 µM
IC50 [3]: 742 µM
MIC [4]: > 250 µM
MIC [5]: > 250 µM
MIC [6]: > 250 µM
MIC [7, 15]: ≥ 500 µg/mL
MIC [7, 16]: ≥ 500 µg/mL
MIC [8]: > 250 µM
MIC [9]: > 250 µM
MIC [10, 17]: 62.5 µg/mL (≈ 198 µM)
MIC ([10]; pH 6.6, read-out: MIC M. aurum): ≥ 500 µg/mL
MIC ([12]; pH 6): 7.81 µg/mL
MIC ([12]; pH 6, read-out: Mtb pH 6 MIC): 25 µM
MIC ([12]; pH 6, read-out: MIC Mtb H37Ra): 7.81 µg/mL
MIC [12, 18]: 250 µg/mL
MIC [12, 19]: 24.8 µM
MIC [13]: > 250 µM
MIC [14]: 125 µM (≈ 39.4 µg/mL)

COC(=O)C(NC(=O)c1cnccn1)c1ccccc1 [PC-D/L-Pgl-Me, methyl 2-phenyL-2-(pyrazine-2-carboxamido)acetate]
MIC [1]: > 500 µM
MIC [2]: > 500 µM
IC50 [3]: > 1000 µM
MIC [4]: > 500 µM
MIC [5]: > 500 µM
MIC [6]: > 500 µM
MIC [7, 15]: ≥ 250 µg/mL
MIC [7, 16]: ≥ 500 µg/mL
MIC [8]: > 500 µM
MIC [9]: > 500 µM
MIC [10, 17]: 31.2 µg/mL (≈ 115 µM)
MIC ([10]; pH 6.6, read-out: MIC M. aurum): ≥ 500 µg/mL
MIC KP [11]: > 500 µM
MIC ([12]; pH 6): < 1.95 µg/mL
MIC ([12]; pH 6, read-out: Mtb pH 6 MIC): < 7 µM
MIC ([12]; pH 6, read-out: MIC Mtb H37Ra): < 1.95 µg/mL
MIC [12, 18]: ≥ 500 µg/mL
MIC [12, 19]: < 7.3 µM
MIC [13]: > 500 µM
MIC [14]: 500 µM (≈ 136 µg/mL)

COC(=O)[C@@H](NC(=O)c1cnccn1)C(C)C [PC-L-Val-Me, methyl (pyrazine-2-carbonyl)-L-valinate]
MIC [1]: > 500 µM
MIC [2]: > 500 µM
MIC [4]: > 500 µM
MIC [5]: > 500 µM
MIC [6]: > 500 µM
MIC [7, 15]: ≥ 125 µg/mL
MIC [7, 16]: 250 µg/mL (≈ 1050 µM)
MIC [8]: > 500 µM
MIC [9]: > 500 µM
MIC [10, 17]: ≥ 125 µg/mL
MIC ([10]; pH 6.6, read-out: MIC M. aurum): ≥ 500 µg/mL
MIC KP [11]: > 500 µM
MIC ([12]; pH 6): ≥ 125 µg/mL
MIC ([12]; pH 6, read-out: MIC Mtb H37Ra): ≥ 125 µg/mL
MIC [12, 18]: ≥ 500 µg/mL
MIC [12, 19]: ≥ 527 µM
MIC [13]: > 500 µM
MIC [14]: > 500 µM

CCOC(=O)CNC(=O)c1cnccn1 [PC-Gly-Et, ethyl (pyrazine-2-carbonyl)glycinate]
MIC [1]: > 500 µM
MIC [2]: > 500 µM
MIC [4]: > 500 µM
MIC [5]: > 500 µM
MIC [6]: > 500 µM
MIC [7, 15]: ≥ 125 µg/mL
MIC [7, 16]: 250 µg/mL (≈ 1200 µM)
MIC [8]: > 500 µM
MIC [9]: > 500 µM
MIC [10, 17]: ≥ 125 µg/mL
MIC ([10]; pH 6.6, read-out: MIC M. aurum): ≥ 500 µg/mL
MIC KP [11]: > 500 µM
MIC ([12]; pH 6): ≥ 125 µg/mL
MIC ([12]; pH 6, read-out: MIC Mtb H37Ra): ≥ 125 µg/mL
MIC [12, 18]: ≥ 500 µg/mL
MIC [12, 19]: ≥ 598 µM
MIC [13]: > 500 µM
MIC [14]: > 500 µM
